Laboratory results published in US10207989B2, “Substituted alkyl diaryl derivatives, methods of preparation and uses” (TEMPLE UNIVERSITY—OF THE COMMONWEALTH SYSTEM OF HIGHER …, priority 2012, dated 2019).

Columns and labels:
[1] = system: K562 (chronic myelogenous leukemia; leukemia cell line +ve for Bcr-Abl); assay: Cancer cell assay, tumor cells K562; assay type: cell-based; details: Homo sapiens, compound in DMSO 0.01 μM to 100 μM, examined 96 hours later, viable cells by trypan blue exclusion
Experimental: (§1) The effect of the compounds of the invention on tumor cells was determined by the assay described by Latham et al., Oncogene 12:827-837 (1996). Tumor cells K562 (chronic myelogenous leukemia; leukemia cell line +ve for Bcr-Abl) or DU145 (prostate cancer) were plated in 12-well dishes at a cell density of 2.5×10^4 cells well. The plated cells were treated 24 hours later with a compound of the invention dissolved in DMSO at multiple concentrations ranging from 0.01 μM to 100 μM. The plates were examined 96 hours later under an inverted microscope, Olympus CK-2 using a 10× objective, and compound activity was noted by physical observation. When necessary, the total number of viable cells was determined by trypsinizing the wells and counting the number of viable cells, as determined by trypan blue exclusion, using a hemacytometer.

DU145 (prostate cancer) = assay: Cancer cell assay, tumor cells DU145; assay type: cell-based; details: Homo sapiens, examined 96 hours later, viable cells by trypan blue exclusion
Experimental: as §1

[2] = DU-145, compound in DMSO 0.01 μM to 100 μM

Structure (SMILES) | melting point [°C] | IC50 [1] [µM] | IC50 (DU145 (prostate cancer); [2]) [µM] | IC50 ([1]; K562, 96 h) [µM] | IC50 (DU145 (prostate cancer); DU-145, 96 h, compound in DMSO 0.01 μM to 100 μM) [µM]
COC(=O)CN(CC(=O)OC)c1cc(CS(=O)(=O)CCc2c(OC)cc(OC)cc2OC)ccc1OC [Example 9, Dimethyl 2,2′-((2-methoxy-5-(((2,4,6-trimethoxyphenethyl)sulfonyl)methyl)phenyl)azanediyl)diacetate] | 86 to 88 | 2 | 2 | – | –
COc1cc(OC)c(CCNC(=O)c2ccc(OC)c([N+](=O)[O-])c2)c(OC)c1 [Example 34, 4-methoxy-3-nitro-N-(2,4,6-trimethoxyphenethyl)benzamide] | – | 75 | 75 | – | –
COc1cc(OC)c(CCNS(=O)(=O)c2ccc(OC)c([N+](=O)[O-])c2)c(OC)c1 [Example 25, 4-methoxy-3-nitro-N-(2,4,6-trimethoxyphenethyl)benzenesulfonamide] | – | 35 | 35 | – | –
COc1ccc(CCNC(=O)c2ccc(OC)cc2)cc1 [Example 31, 4-methoxy-N-(4-methoxyphenethyl)benzamide] | – | 100 | 75 | – | –
COc1cc(OC)c(CCS(=O)(=O)Cc2ccc(OC)c(O)c2)c(OC)c1 [Example 5, 2-Methoxy-5-(((2,4,6-trimethoxyphenethyl)sulfonyl)methyl)phenol] | 136 to 138 | 0.003 | 0.0075 | – | –
COc1cc(OC)c(CCS(=O)(=O)Nc2ccc(OC)c(N)c2)c(OC)c1 [Example 19, N-(3-Amino-4-methoxyphenyl)-2-(2,4,6-trimethoxyphenyl)ethanesulfonamide] | – | 0.003 | 0.005 | – | –
COc1ccc(CCNS(=O)(=O)c2ccc(C)cc2)cc1 [Example 22, N-(4-methoxyphenethyl)-4-methylbenzenesulfonamide] | – | 60 | 60 | – | –
COC(=O)CNc1cc(CS(=O)(=O)CCc2c(OC)cc(OC)cc2OC)ccc1OC [Example 8] | – | 0.15 | 0.15 | – | –
COc1ccc(CCNS(=O)(=O)c2ccc(OC)cc2)cc1 [Example 27, 4-methoxy-N-(4-methoxyphenethyl)benzenesulfonamide] | – | 75 | 75 | – | –
O=S(=O)(CCc1ccc(F)cc1)Cc1ccc(Cl)cc1 [Example 2, 1-Chloro-4-(((4-fluorophenethyl)sulfonyl)methyl)benzene] | 142 to 144 | 1.5 | 1.5 | – | –
COc1cc(OC)c(CCNC(=O)c2ccc(OC)c(N)c2)c(OC)c1 [Example 35, 3-amino-4-methoxy-N-(2,4,6-trimethoxyphenethyl)benzamide] | – | 0.5 | 5 | – | –
COc1cc(OC)c(CCS(=O)(=O)Cc2ccc(OC)c(N)c2)c(OC)c1 [Example 3, 2-Methoxy-5-(((2,4,6-trimethoxyphenethyl)sulfonyl)methyl)aniline] | 128 to 130 | 0.0025 | 0.003 | – | –
COc1ccc(CCNS(=O)(=O)c2ccc(OC)c([N+](=O)[O-])c2)cc1 [Example 23, 4-methoxy-N-(4-methoxyphenethyl)-3-nitrobenzenesulfonamide] | – | 35 | 35 | – | –
O=C(O)c1ccc(CCS(=O)(=O)Cc2ccc(Cl)cc2)cc1 [Example 6, 4-(2-((4-Chlorobenzyl)sulfonyl)ethyl)benzoic acid] | 265 to 267 | 10 | 10 | – | –
COc1cc(OC)c(CCS(=O)(=O)Cc2ccc(OC)c(NCC(=O)O)c2)c(OC)c1 [Example 4] | 146 to 150 | 0.5 | 0.25 | – | –
COc1cc(CSCCc2ccc(OC)c(OC)c2)ccc1O [Example 37, 4-(((3,4-dimethoxyphenethyl)thio)methyl)-2-methoxyphenol] | – | 5 | 15 | – | –
COc1cc(OC)c(CCNS(=O)(=O)c2ccc(C)cc2)c(OC)c1 [Example 29, 4-methyl-N-(2,4,6-trimethoxyphenethyl)benzenesulfonamide] | – | > 10 | > 10 | – | –
COc1ccc(CS(=O)(=O)CCc2c(OC)cc(OC)cc2OC)cc1 [Example 20, 1,3,5-Trimethoxy-2-(2-((4-methoxybenzyl)sulfonyl)ethyl)benzene] | – | 0.05 | 0.15 | – | –
COc1ccc(CCNC(=O)c2ccc(OC)c([N+](=O)[O-])c2)cc1 [Example 32, 4-methoxy-N-(4-methoxyphenethyl)-3-nitrobenzamide] | – | 75 | 75 | – | –
COc1ccc(CCNC(=O)c2ccc(OC)c(N)c2)cc1 [Example 33, 3-amino-4-methoxy-N-(4-methoxyphenethyl)benzamide] | – | 75 | 75 | – | –
COc1cc(CS(=O)(=O)CCc2ccc(OC)c(OC)c2)ccc1O [Example 38, 4-(((3,4-dimethoxyphenethyl)sulfonyl)methyl)-2-methoxyphenol] | – | > 10 | > 10 | – | –
COc1ccc(CCS(=O)(=O)Nc2c(OC)cc(OC)cc2OC)cc1 [Example 36, 2-(4-methoxyphenyl)-N-(2,4,6-trimethoxyphenyl)ethanesulfonamide] | – | 2.5 | 15 | – | –
COc1cc(OC)c(CCNS(=O)(=O)c2ccc(OC)c(N)c2)c(OC)c1 [Example 26, 3-amino-4-methoxy-N-(2,4,6-trimethoxyphenethyl)benzenesulfonamide] | – | 0.75 | 5 | – | –
COc1cc(OC)c(CCS(=O)(=O)Cc2ccc(OC)c(NCC(=O)O)c2)c(OC)c1 [Example 21, 2 ((2-methoxy-5-(((2,4,6-trimethoxyphenethyl)sulfonyl)methyl)phenyl)amino)acetate] | – | – | – | 0.04 | 0.15
COc1ccc(S(=O)(=O)NCCc2c(OC)cc(OC)cc2OC)cc1 [Example 28, 4-methoxy-N-(2,4,6-trimethoxyphenethyl)benzenesulfonamide] | – | > 10 | > 10 | – | –
COc1ccc(C(=O)NCCc2c(OC)cc(OC)cc2OC)cc1 [Example 30, 4-methoxy-N-(2,4,6-trimethoxyphenethyl)benzamide] | – | 5 | 15 | – | –
COc1cc(OC)c(CCC(=O)Nc2ccc(OC)c(N)c2)c(OC)c1 [Example 7, N-(3-Amino-4-methoxyphenyl)-3-(2,4,6-trimethoxyphenyl)propanamide] | – | 0.15 | 5 | – | –
